The target in assay [1] is T1, WRN helicase (His-WRN527-072) (Homo sapiens, UniProt Q14191).
T1 construct: in-house produced His-WRN527-072 was used; His (N); made in house
The assay can be described thus: WRN Helicase Assay (fluorescent forked DNA). The format is biochemical. As to conditions: 30 min pre-incubation, 60 min reaction at room temperature. How it is done: To assess the inhibition properties of the invented compounds on WRN helicase activity, a fluorescent assay using forked DNA was set up. In the helicase assay, in-house produced His-WRN527-072 was used. […] 2.5-fold serial dilution of test compounds were prepared for 7 gradient points with DMSO, and then 1.5 μl of each concentration were added to 48.5 μl of assay buffer (25 mM Tris-HCl (pH 8.0), 50 mM NaCl, 2 mM MgCl2, 1 mM DTT, 0.0500 Tween-20, and 2.5 μg/ml BSA) for further dilution. […] Each concentration of the compounds was added as triplicate in the plate. Controls were included in the test to validate the assay. […] Forked DNA and ATP were diluted into 300 nM and 6 mM, respectively, with assay buffer. To initiate the reaction, 5 μl of the dsDNA and ATP solution were added to the assay plate. After 60 minutes room temperature incubation, the plate was transferred to Victor Nivo multimode plate reader (Perkin Elmer, Waltham, MA) and the fluorescence outputs were monitored. GraphPad Prism 9 (GraphPad Software, San Diego, CA) was used to carry out the dose-response curves, deriving IC50s.

Assay [2] relates to SW48. Nature of the assay: SW48 cell assay. As to conditions: Homo sapiens. The format is cell-based.

The source of these data is patent US20260199351A1, “TRIAZOLE COMPOUNDS, PREPARATION METHODS AND MEDICINAL USES THEREOF” (Jiangsu Hengrui Pharmaceuticals Co., Ltd., priority 2022, published 2026).

T1 sequence (Q14191 527-1072 limits assumed): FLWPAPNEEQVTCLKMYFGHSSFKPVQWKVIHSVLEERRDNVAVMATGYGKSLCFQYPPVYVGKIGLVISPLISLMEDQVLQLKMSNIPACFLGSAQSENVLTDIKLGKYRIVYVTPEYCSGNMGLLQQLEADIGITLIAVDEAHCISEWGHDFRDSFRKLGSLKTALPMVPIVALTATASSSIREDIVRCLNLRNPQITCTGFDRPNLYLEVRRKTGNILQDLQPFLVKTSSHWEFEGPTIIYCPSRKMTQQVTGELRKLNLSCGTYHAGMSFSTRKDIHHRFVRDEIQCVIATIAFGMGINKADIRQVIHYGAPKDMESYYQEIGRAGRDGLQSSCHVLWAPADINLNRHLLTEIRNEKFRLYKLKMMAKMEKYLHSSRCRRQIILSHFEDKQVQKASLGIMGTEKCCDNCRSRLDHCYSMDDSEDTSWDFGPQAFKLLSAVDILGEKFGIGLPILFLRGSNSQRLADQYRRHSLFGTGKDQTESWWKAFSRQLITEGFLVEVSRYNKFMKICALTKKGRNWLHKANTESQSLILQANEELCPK

As a reminder, the IC50 is the concentration that inhibits the measured activity by half. A lower IC50 goes with higher potency. As for `CCc1c(N2C3CC2CN(C(=O)c2ncnc(C)c2O)C3)c(=O)n2nc(C3=CCOCC3)nc2n1CC(=O)Nc1ccc(C(F)(F)F)cc1Cl` [Compound 1], the IC50 in assay [1] worked out at 48000 nM.

`CCc1c(N2C3CCC2CN(C(=O)c2ncccc2O)C3)c(=O)n2nc(-c3cnn(C)c3)nc2n1CC(=O)Nc1ccc(C(F)(F)F)cc1C` [Compound 207]: the IC50 in assay [1] amounted to 5.1 nM; in assay [2], 1140 nM.

In the case of `CCc1c(C2=CCN(C(=O)c3ncnc(C)c3O)CCC2)c(=O)n2nc(C3CCOCC3)nc2n1CC(=O)Nc1ccc(C(F)(F)F)cc1Cl` [Compound 196, N-(2-chloro-4-(trifluoromethyl)phenyl)-2-(5-ethyl-6-(1-(5-hydroxy-6-methylpyrimidine-4-carbonyl)-2,5,6,7-tetrahydro-1H-azepin-4-yl)-7-oxo-2-(tetrahydro-2H-pyran-4-yl)-[1,2,4]triazolo[1,5-a]pyrimidin-4(7H)-yl)acetamide], the IC50 in assay [1] is 1280 nM.

Turning to `CCc1c(N2CC3CC2CN3C(=O)c2ncnc(C)c2O)c(=O)n2nc(C3=CCOCC3)nc2n1CC(=O)Nc1ccc(C(F)(F)F)cc1Cl` (stereo not drawn) [Compound 2], the results for the IC50 in assay [1] and in assay [2] were 6.4 nM and 5740 nM, respectively.

In assay [1], `CCc1c(N2CCN(Cc3cccn(C)c3=O)C(=O)C2)c(=O)n2nc(C3=CCOCC3)nc2n1CC(=O)Nc1ccc(C(F)(F)F)cc1C` [Compound 68] gave an IC50 of 5000 nM.

As to `CCc1c(N2CCN(C(=O)c3ncccc3O)CC2)c(=O)n2nc(C3=CCOCC3)nc2n1CC(=O)Nc1ccc(OC(F)(F)F)cc1` [Compound 198], the IC50 in assay [1] is 2.3 nM; in assay [2] it was 129 nM.

In the case of `CCc1c(N2CCN(C(=O)c3ncccc3O)CC2)c(=O)n2nc(C3=CCOCC3)nc2n1CC(=O)Nc1ccc(Cl)c(C(F)(F)F)c1` [Compound 197], the IC50 in assay [1] was 3.8 nM; in assay [2] it was 28 nM.

On to `CCc1c(N2[C@@H]3CC[C@H]2CN(C(=O)c2ncnc(C)c2O)C3)c(=O)n2nc(C3=CCOCC3)nc2n1CC(=O)Nc1ccc(C(F)(F)F)cc1C` [Compound 17], for which the IC50 in assay [1] turned out to be 3.5 nM; in assay [2], 183 nM.

On to `CCc1c(N2CC3CCC(C2)N3C(=O)c2ncccc2O)c(=O)n2nc(C3=CCOCC3)nc2n1CC(=O)Nc1ccc(C(F)(F)F)nc1Cl` [Compound 8], for which the half-maximal inhibitory concentration (IC50) in assay [1] was 5.9 nM; in assay [2], 1630 nM.

Take `CCc1c(N2C3CCC2CN(C(=O)c2ncnc(C)c2O)C3)c(=O)n2nc(-c3cnn(C)c3)nc2n1CC(=O)Nc1ccc(C(F)(F)F)cc1C` [Compound 208]: the IC50 in assay [1] was 6.2 nM; in assay [2], 440 nM.

With `CCc1c(N2CC3CCC(C2)N3C(=O)c2ncccc2O)c(=O)n2nc(C3=CCOCC3)nc2n1CC(=O)Nc1ccc(C(F)(F)F)cc1Cl` [Compound 4], the IC50 in assay [1] worked out at 4.5 nM; in assay [2] it was 1350 nM.

In assay [1], `CCc1c(N2CCN(C(=O)c3ncnc(C)c3O)CC2)c(=O)n2nc(C3C4CC(OC)CC43)nc2n1CC(=O)Nc1ccc(C(F)(F)F)cc1Cl` (stereo not drawn) [Compound 191, N-(2-chloro-4-(trifluoromethyl)phenyl)-2-(5-ethyl-6-(4-(5-hydroxy-6-methylpyrimidine-4-carbonyl)piperazin-1-yl)-2-(3-methoxybicyclo[3.1.0]hexan-6-yl)-7-oxo-[1,2,4]triazolo[1,5-a]pyrimidin-4(7H)-yl)acetamide] returned a concentration for half-maximal inhibition (IC50) of 3.7 nM.

For the compound `CCc1c(N2C3CCC2CN(C(=O)c2ncccc2O)C3)c(=O)n2nc(C3=CCOCC3)nc2n1CC(=O)Nc1ccc(C(F)(F)F)cc1Cl` [Compound 189, N-(2-chloro-4-(trifluoromethyl)phenyl)-2-(2-(3,6-dihydro-2H-pyran-4-yl)-5-ethyl-6-(3-(3-hydroxypicolinoyl)-3,8-diazabicyclo[3.2.1]octan-8-yl)-7-oxo-[1,2,4]triazolo[1,5-a]pyrimidin-4(7H)-yl)acetamide], the IC50 in assay [1] turned out to be 4.6 nM; in assay [2] it was 1110 nM.

Turning to `CCc1c(N2CCC(NC(=O)c3ncnc(C)c3O)C2)c(=O)n2nc(C3=CCOCC3)nc2n1CC(=O)Nc1ccc(C(F)(F)F)cc1C` (stereo not drawn) [Compound 23], the IC50 in assay [1] is 6.3 nM; in assay [2], 1870 nM.

Turning to `CCc1c(N2CC3CC(C2)N3C(=O)c2ncnc(C)c2O)c(=O)n2nc(C3=CCOCC3)nc2n1CC(=O)Nc1ccc(C(F)(F)F)cc1C` [Compound 187, 2-(2-(3,6-dihydro-2H-pyran-4-yl)-5-ethyl-6-(6-(5-hydroxy-6-methylpyrimidine-4-carbonyl)-3,6-diazabicyclo[3.1.1]heptan-3-yl)-7-oxo-[1,2,4]triazolo [1,5-a]pyrimidin-4(7H)-yl)-N-(2-methyl-4-(trifluoromethyl)phenyl)acetamide], the IC50 was 8.6 nM in assay [1] and 4500 nM in assay [2].

Regarding `CCc1c(C2=CCN(C(=O)c3ncnc(C)c3O)CCC2)c(=O)n2nc(C3=CCOCC3)nc2n1CC(=O)Nc1ccc(C(F)(F)F)cc1Cl` [Compound 190, N-(2-chloro-4-(trifluoromethyl)phenyl)-2-(2-(3,6-dihydro-2H-pyran-4-yl)-5-ethyl-6-(1-(5-hydroxy-6-methylpyrimidine-4-carbonyl)-2,5,6,7-tetrahydro-1H-azepin-4-yl)-7-oxo-[1,2,4]triazolo[1,5-a]pyrimidin-4(7H)-yl)acetamide], the 50% inhibitory concentration (IC50) in assay [1] was 5.2 nM; in assay [2], 2240 nM.

As for `CCc1c(N2CC3CCC(C2)N3C(=O)c2ncccc2O)c(=O)n2nc(C3=CCOCC3)nc2n1CC(=O)Nc1ccc(Cl)c(C(F)(F)F)c1` [Compound 199], the IC50 in assay [1] was determined as 9.3 nM; in assay [2], 3350 nM.

For `CCc1c(N2C3CCC2CN(C(=O)c2ncccc2O)C3)c(=O)n2nc(C3=CCOCC3)nc2n1CC(=O)Nc1ccc(C(F)(F)F)cc1C` [Compound 206], the results for the IC50 in assay [1] and in assay [2] were 3.6 nM and 1140 nM, respectively.

For the compound `CCc1c(N2CC3CCC(C2)N3C(=O)c2ncccc2O)c(=O)n2nc(C3=CCC(OC)CC3)nc2n1CC(=O)Nc1ccc(C(F)(F)F)cc1C` (stereo not drawn) [Compound 202, 2-(5-ethyl-6-(8-(3-hydroxypicolinoyl)-3,8-diazabicyclo[3.2.1]octan-3-yl)-2-(4-methoxycyclohex-1-en-1-yl)-7-oxo-[1,2,4]triazolo[1,5-a]pyrimidin-4(7H)-yl)-N-(2-methyl-4-(trifluoromethyl)phenyl)acetamide], the IC50 was 7 nM in assay [1] and 1040 nM in assay [2].

Turning to `CCc1c(N2CCCN(C(=O)c3ncnc(C)c3O)CC2)c(=O)n2nc(C3=CCOCC3)nc2n1CC(=O)Nc1ccc(C(F)(F)F)cc1Cl` [Compound 19], the values for the half-maximal inhibitory concentration (IC50) in assay [1] and in assay [2] were 5.1 nM and 818 nM, respectively.

`CCc1c(N2CC3CCC(C2)N3C(=O)c2ncnc(C)c2O)c(=O)n2nc(C3=CCOCC3)nc2n1CC(=O)Nc1ccc(C(F)(F)F)nc1Cl` [Compound 15]: the IC50 in assay [1] was found to be 9.2 nM; in assay [2] it was 3490 nM.

For the compound `CCc1c(N2CC3CC(F)C(C2)N3C(=O)c2ncccc2O)c(=O)n2nc(C3=CCOCC3)nc2n1CC(=O)Nc1ccc(C(F)(F)F)cc1C` (stereo not drawn) [Compound 205], the IC50 amounted to 10.9 nM in assay [1] and 2370 nM in assay [2].

Regarding `CCc1c(N2CC3CCC(C2)N3C(=O)c2ncccc2O)c(=O)n2nc(C3=CCN(CC(F)F)CC3)nc2n1CC(=O)Nc1ccc(C(F)(F)F)cc1C` [Compound 203, 2-(2-(1-(2,2-difluoroethyl)-1,2,3,6-tetrahydropyridin-4-yl)-5-ethyl-6-(8-(3-hydroxypicolinoyl)-3,8-diazabicyclo[3.2.1]octan-3-yl)-7-oxo-[1,2,4]triazolo[1,5-a]pyrimidin-4(7H)-yl)-N-(2-methyl-4-(trifluoromethyl)phenyl)acetamide], the figures for the IC50 in assay [1] and in assay [2] were 8.7 nM and 967 nM, respectively.
